Laboratory results published in PMC3260308, “Substrate Specificity within a Family of Outer Membrane Carboxylate Channels” (PLoS Biology, 2012).
Where two headings read alike, the source gives them in different places.

How the values were obtained:
OccK1 (formerly OpdK) = biological target: T1, OccK1 (formerly OpdK) (Pseudomonas aeruginosa, UniProt Q9HUR5); test: competition of radiolabelled uptake in total membrane vesicles; assay type: biochemical; conditions: vs 0.5 uM 3H-benzoate, 5 uM unlabelled compound, 10 mM HEPES pH 7.0, 25 C, 10 min
T1 construct: pB22, N-terminal hexa-histidine tag; expressed in E. coli BL21 omp8, total membrane vesicles; purified protein for crystals
T1 sequence (Q9HUR5 28-417): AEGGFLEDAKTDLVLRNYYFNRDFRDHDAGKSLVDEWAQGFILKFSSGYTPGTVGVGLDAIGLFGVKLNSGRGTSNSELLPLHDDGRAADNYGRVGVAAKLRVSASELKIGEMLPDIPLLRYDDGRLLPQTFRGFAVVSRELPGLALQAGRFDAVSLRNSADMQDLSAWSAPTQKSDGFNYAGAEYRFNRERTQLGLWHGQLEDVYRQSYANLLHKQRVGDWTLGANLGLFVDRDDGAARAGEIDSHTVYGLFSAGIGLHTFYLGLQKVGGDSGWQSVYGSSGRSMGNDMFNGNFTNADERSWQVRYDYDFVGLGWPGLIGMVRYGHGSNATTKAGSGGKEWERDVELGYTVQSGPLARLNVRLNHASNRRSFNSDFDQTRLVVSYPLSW
Source text: competition of radiolabelled uptake in total membrane vesicles on OccK1 (formerly OpdK)

OccD1 (formerly OprD) [1] = biological target: T2, OccD1 (formerly OprD) (Pseudomonas aeruginosa, UniProt P32722); assay type: biochemical; conditions: vs 0.25 uM 14C-arginine, 2.5 uM unlabelled compound, 10 mM HEPES pH 7.0, 25 C, 15 min
T2 construct: pB22, N-terminal hexa-histidine tag kept in vesicles; expressed in porin-deficient E. coli BL21 omp8; total membrane vesicles (purified protein for liposome swelling)
T2 sequence (P32722 24-443): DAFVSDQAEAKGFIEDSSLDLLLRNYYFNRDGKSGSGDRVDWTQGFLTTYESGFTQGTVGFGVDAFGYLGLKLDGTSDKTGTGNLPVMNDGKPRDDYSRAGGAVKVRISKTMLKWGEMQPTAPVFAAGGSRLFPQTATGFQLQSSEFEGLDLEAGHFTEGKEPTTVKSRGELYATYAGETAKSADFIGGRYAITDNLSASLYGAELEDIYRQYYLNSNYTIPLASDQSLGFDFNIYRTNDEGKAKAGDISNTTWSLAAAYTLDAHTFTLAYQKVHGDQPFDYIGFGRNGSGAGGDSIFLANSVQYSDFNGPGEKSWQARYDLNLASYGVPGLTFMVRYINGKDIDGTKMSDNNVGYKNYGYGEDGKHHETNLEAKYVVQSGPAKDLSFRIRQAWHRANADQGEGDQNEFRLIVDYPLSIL
Source text: competition of radiolabelled uptake in total membrane vesicles on OccD1 (formerly OprD)

OccD3 (formerly OpdP) = biological target: T3, OccD3 (formerly OpdP) (Pseudomonas aeruginosa, UniProt Q9HVS0); test: radiolabelled uptake in total membrane vesicles; assay type: biochemical; conditions: 0.25 uM 14C-arginine, 15 min, 10 mM HEPES pH 7.0, 25 C; labelled compound
T3 construct: pB22, N-terminal hexa-histidine tag; expressed in E. coli BL21 omp8, total membrane vesicles
T3 sequence (Q9HVS0 26-484): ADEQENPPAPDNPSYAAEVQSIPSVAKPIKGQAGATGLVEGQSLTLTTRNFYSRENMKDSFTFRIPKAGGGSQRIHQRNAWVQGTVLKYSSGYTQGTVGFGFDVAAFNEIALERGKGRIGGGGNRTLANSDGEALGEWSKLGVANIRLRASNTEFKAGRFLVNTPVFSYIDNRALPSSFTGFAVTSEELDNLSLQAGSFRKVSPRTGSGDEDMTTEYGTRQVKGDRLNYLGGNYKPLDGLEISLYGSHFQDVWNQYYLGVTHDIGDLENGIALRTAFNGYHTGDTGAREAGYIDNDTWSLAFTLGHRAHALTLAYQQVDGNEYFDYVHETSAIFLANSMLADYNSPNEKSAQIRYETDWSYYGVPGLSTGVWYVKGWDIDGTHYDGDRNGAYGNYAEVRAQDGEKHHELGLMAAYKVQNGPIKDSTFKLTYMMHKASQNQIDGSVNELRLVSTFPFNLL

OccD2 (formerly OpdC) = biological target: T4, OccD2 (formerly OpdC) (Pseudomonas aeruginosa, UniProt Q9I6X0); test: radiolabelled uptake in total membrane vesicles; assay type: biochemical; conditions: 0.25 uM 14C-arginine, 15 min, 10 mM HEPES pH 7.0, 25 C; labelled compound
T4 construct: pB22, N-terminal hexa-histidine tag; expressed in E. coli BL21 omp8, total membrane vesicles
T4 sequence (Q9I6X0 23-444): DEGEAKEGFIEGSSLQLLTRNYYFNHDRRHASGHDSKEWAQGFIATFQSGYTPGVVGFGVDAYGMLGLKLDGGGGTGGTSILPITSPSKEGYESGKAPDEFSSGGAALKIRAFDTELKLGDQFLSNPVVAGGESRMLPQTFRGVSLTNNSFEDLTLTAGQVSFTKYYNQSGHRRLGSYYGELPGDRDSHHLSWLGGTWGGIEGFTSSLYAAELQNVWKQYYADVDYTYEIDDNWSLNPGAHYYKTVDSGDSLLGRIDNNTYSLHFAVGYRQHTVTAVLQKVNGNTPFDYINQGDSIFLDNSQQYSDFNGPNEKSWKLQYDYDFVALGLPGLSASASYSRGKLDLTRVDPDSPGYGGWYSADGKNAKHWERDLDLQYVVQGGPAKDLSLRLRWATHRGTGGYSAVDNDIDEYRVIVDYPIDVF

OccK2 = biological target: T5, OccK2 (Pseudomonas aeruginosa, UniProt Q9I6P8); test: competition of radiolabelled uptake in total membrane vesicles; assay type: biochemical; conditions: vs 0.5 uM 3H-glucuronate, 5 uM unlabelled compound, 10 mM HEPES pH 7.0, 25 C, 10 min
T5 construct: gene PA0240; pB22, N-terminal hexa-histidine tag; expressed in E. coli BL21 omp8, total membrane vesicles
T5 sequence (Q9I6P8 25-421): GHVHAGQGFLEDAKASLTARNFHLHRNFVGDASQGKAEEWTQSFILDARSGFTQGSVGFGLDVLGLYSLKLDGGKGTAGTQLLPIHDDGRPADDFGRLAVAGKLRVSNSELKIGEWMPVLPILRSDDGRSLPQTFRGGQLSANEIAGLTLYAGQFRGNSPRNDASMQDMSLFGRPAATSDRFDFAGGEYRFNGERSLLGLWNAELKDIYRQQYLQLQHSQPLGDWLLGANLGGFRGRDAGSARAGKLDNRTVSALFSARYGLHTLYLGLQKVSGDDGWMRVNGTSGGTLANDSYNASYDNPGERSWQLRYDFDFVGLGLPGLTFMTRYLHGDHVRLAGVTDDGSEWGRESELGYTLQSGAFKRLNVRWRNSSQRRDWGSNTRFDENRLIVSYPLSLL
Source text: competition of radiolabelled uptake in total membrane vesicles on OccK2

OccK3 [2] = biological target: T6, OccK3 (Pseudomonas aeruginosa, UniProt Q9I202); test: competition of pyroglutamate uptake in membrane vesicles; liposome swelling; assay type: biochemical; conditions: 10-fold excess over radiolabelled pyroglutamate, pH 7.0; uptake confirmed by liposome swelling
T6 construct: gene opdO; pB22, N-terminal hexa-histidine tag; expressed in E. coli BL21 omp8, total membrane vesicles; purified protein for liposome swelling
T6 sequence (Q9I202 26-409): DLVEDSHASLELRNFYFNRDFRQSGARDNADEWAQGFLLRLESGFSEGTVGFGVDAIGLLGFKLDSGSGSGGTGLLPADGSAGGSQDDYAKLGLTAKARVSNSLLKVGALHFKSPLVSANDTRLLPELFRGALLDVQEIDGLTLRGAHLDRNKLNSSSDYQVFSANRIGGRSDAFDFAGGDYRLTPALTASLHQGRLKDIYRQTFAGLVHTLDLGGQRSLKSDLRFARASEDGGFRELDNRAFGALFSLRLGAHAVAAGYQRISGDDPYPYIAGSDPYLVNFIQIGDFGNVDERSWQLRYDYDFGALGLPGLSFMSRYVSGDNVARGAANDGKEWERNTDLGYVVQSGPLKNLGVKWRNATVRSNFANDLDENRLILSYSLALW

OccD1 (formerly OprD) [3] = biological target: T2, OccD1 (formerly OprD); test: competition of arginine uptake in membrane vesicles; liposome swelling; assay type: biochemical; conditions: 10-fold excess over 0.25 uM 14C-arginine, pH 7.0, 25 C; uptake confirmed by liposome swelling
OccD1 (formerly OprD) [4] = biological target: T2, OccD1 (formerly OprD); test: competition of arginine uptake in membrane vesicles; assay type: biochemical; conditions: 10-fold excess over 0.25 uM 14C-arginine, pH 7.0, 25 C
OccK7 = biological target: T7, OccK7 (Pseudomonas aeruginosa, UniProt Q9I4U9); test: competition of benzoate uptake in membrane vesicles; assay type: biochemical; conditions: 10-fold excess over radiolabelled benzoate, pH 7.0
T7 construct: gene PA1025; pB22, N-terminal hexa-histidine tag; expressed in E. coli BL21 omp8, total membrane vesicles
T7 sequence (Q9I4U9 23-416): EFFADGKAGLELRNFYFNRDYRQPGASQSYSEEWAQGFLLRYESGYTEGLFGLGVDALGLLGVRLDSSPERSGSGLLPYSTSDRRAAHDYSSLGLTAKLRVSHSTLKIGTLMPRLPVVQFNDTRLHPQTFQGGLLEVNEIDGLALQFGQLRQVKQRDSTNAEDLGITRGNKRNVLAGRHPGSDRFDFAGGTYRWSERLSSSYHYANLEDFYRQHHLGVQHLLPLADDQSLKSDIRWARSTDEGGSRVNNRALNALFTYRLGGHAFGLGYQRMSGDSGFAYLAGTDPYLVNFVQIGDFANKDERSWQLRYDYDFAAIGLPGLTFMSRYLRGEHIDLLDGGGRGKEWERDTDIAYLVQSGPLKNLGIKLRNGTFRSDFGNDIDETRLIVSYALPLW

OccK4 = biological target: T8, OccK4 (Pseudomonas aeruginosa, UniProt Q9HWP4); test: radiolabelled uptake in total membrane vesicles; assay type: biochemical; conditions: 10 uM 14C-phenylacetate, 45 min; very low specific activity; labelled compound
T8 construct: gene PA4137; pB22, N-terminal hexa-histidine tag; expressed in E. coli BL21 omp8, total membrane vesicles
T8 sequence (Q9HWP4 entry or part of it): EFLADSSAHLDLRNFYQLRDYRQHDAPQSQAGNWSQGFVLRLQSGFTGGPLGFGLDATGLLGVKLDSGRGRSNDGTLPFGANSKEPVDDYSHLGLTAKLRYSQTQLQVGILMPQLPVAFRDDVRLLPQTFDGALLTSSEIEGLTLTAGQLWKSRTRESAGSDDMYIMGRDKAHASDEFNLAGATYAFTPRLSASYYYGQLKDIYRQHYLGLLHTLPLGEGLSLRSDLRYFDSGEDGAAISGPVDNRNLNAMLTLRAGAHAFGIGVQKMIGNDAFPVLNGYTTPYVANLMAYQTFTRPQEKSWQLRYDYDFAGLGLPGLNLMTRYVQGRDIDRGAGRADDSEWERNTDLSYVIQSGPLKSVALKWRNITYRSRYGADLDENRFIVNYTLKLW

OccK3 [5] = biological target: T6, OccK3; test: radiolabelled uptake in total membrane vesicles; assay type: biochemical; conditions: 0.5 uM 3H-pyroglutamate, 15 min, 10 mM HEPES pH 7.0, 25 C; labelled compound
OccD1 (P. aeruginosa) = OccD1 (P. aeruginosa) (UniProt P32722)
Chain of OccD1 (P. aeruginosa) (P32722 24-443): as the sequence (P32722 24-443) above

## O=C(O)c1ccc([N+](=O)[O-])cc1 [4-nitrobenzoate]
OccK1 (formerly OpdK)
  OccK1: 16±3%

## N=C(N)NCCC[C@H](N)C(=O)O [Arginine]
OccD1 (formerly OprD) [1]; self-competition
  OccD1: 2±1%
OccD3 (formerly OpdP)
  radiolabelled uptake in total membrane vesicles: The efficient arginine uptake mediated by OccD3 is noteworthy
OccD2 (formerly OpdC)
  radiolabelled uptake in total membrane vesicles: OccD2 and OccD3, while efficient in arginine uptake

## N[C@@H](Cc1cnc[nH]1)C(=O)O [Histidine]
OccD1 (formerly OprD) [1]
  OccD1: 12±2%

## NCCCC[C@H](N)C(=O)O [Lysine]
OccD1 (formerly OprD) [1]
  OccD1: 3±1%

## NCCC[C@H](N)C(=O)O [Ornithine]
OccD1 (formerly OprD) [1]
  OccD1: 1±2%

## O=C(O)c1ccccc1 [benzoate]
OccK2
  OccK2: 20±6%
OccK1 (formerly OpdK); self-competition, error printed as '+'
  OccK1: 1+3

## CCCCCC(=O)O [caproate]
OccK1 (formerly OpdK)
  OccK1: 20±5%

## CO/N=C(\C(=O)N[C@@H]1C(=O)N2C(C(=O)O)=C(COC(C)=O)CS[C@H]12)c1csc(N)n1 [cefotaxime]
OccK3 [2]
  % uptake remaining in 10-fold excess: OccK3-mediated transport is affected only with the cephalosporin cefotaxime

## O=C(O)[C@H]1OC(O)[C@H](O)[C@@H](O)[C@@H]1O (some centres unmarked) [glucuronate]
OccK2; self-competition
  % radiolabelled uptake remaining: 3±3%

## C[C@@H](O)[C@H]1C(=O)N2C(C(=O)O)=C(SCCN=CN)C[C@H]12 [imipenem]
OccD1 (formerly OprD) [3]
  % uptake remaining in 10-fold excess: For OccD1, inhibition of arginine uptake is caused only by imipenem and meropenem

## C[C@@H](O)[C@H]1C(=O)N2C(C(=O)O)=C(S[C@@H]3CN[C@H](C(=O)N(C)C)C3)[C@H](C)[C@H]12 [meropenem]
OccD1 (formerly OprD) [4]
  % uptake remaining in 10-fold excess: For OccD1, inhibition of arginine uptake is caused only by imipenem and meropenem
OccK7
  % uptake remaining in 10-fold excess: OccK7-mediated transport is lowered very efficiently by meropenem

## O=C(O)Cc1ccccc1 [phenylacetate]
OccK4
  radiolabelled uptake in total membrane vesicles: OccK4 was indeed the most efficient phenylacetate uptake channel of the proteins tested

## O=C1CC[C@@H](C(=O)O)N1 [pyroglutamate]
OccK2
  OccK2: 25±2%
OccK3 [5]
  radiolabelled uptake in total membrane vesicles: the channel that is most efficient in pyroglutamate uptake (OccK3)
OccK1 (formerly OpdK)
  OccK1: 15±1%

## Arg-Arg dipeptide
OccD1 (P. aeruginosa)
  uptake of radiolabeled arginine by OccD1 in E. coli BL21 omp8 total membrane vesicles in the presence of a 10-fold excess of the unlabeled compound, as a percentage of uptake without it: 40%
